Test results as given in ChEMBL document CHEMBL1122789, “Synthesis and biological activity of structural analogues of the anticancer benzophenanthridine alkaloid nitidine chloride” (1984).
Active and inactive are the calls of the source. No cut-off for these calls is given here.

How the values were obtained:
P388 [1] = test: Evaluated for percentage test/control (%T/C) in survival tumor system against P388 lymphocytic leukemia; assay type: functional, Mus musculus
L1210 = test: Evaluated for percentage test/control (%T/C) in survival tumor system against L1210 lymphoid leukemia; assay type: functional, Mus musculus
B16 = test: Evaluated for percentage test/control (%T/C) in survival tumor system against B16 melanocarcinoma at dose 20 mg/Kg; assay type: functional, Mus musculus
P388 [2] = test: Evaluated for anticancer activity against P388 lymphocytic leukemia system at a dose of 200 mg/Kg; Inactive; assay type: functional; conditions: Mus musculus
KB = test: Evaluated in vitro for cytotoxicity against KB cell culture system; assay type: functional; conditions: Homo sapiens, read-out: ED50 (the source's name)

COc1cc2c(ccc3c4cc(OC)c(OC)cc4c[n+](C)c23)cc1O.[Cl-] [FAGARONINE]
T/C (P388 [1]): 265%

COc1cc2c[n+](C)c3c4cc5c(cc4ccc3c2cc1OC)OCO5.[Cl-] [NITIDINE CHLORIDE]
T/C (L1210): 136% | T/C (B16): 141% | T/C (P388 [1]): 209%

COc1cc2cc(-c3ccc4c(c3)OCO4)[n+](C)cc2cc1OC.[Cl-]
Anticancer activity (P388 [2]): inactive | EC50 (KB): 5 ng/mL
